According to PubChem BioAssay AID248 (DTP/NCI, 2004):
Values joined by “and” are separate entries in the source; they are usually repeats but may differ in a detail not shown here. Identical values can stand only once. Inconclusive results and toxic doses are left out. Rule as the data show it: active = T/C of 150% or more; inactive = T/C below 125%.

System: L1210 leukemia ip in BDF1 mice, survival T/C
Assay: NCI In Vivo Anticancer Drug Screen. Data for tumor model L1210 Leukemia (intraperitoneal) in B6D2F1 (BDF1) mice
Conditions: endpoint: mean survival time, higher = longer survival
Procedure, shortened: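 Antitumor effect is assessed in tumor-bearing animals. Survival in the compound arm is compared with a vehicle-dosed control arm and expressed as their quotient.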

[1] = dose: 100.0 mg/kg/injection, schedule: Q01DX001 (ip), vehicle: carboxymethylcellulose (CMC)
[2] = dose: 200.0 mg/kg/injection, schedule: Q01DX001 (ip), vehicle: carboxymethylcellulose (CMC)
[3] = dose: 400.0 mg/kg/injection, schedule: Q01DX001 (ip), vehicle: carboxymethylcellulose (CMC)
[4] = dose: 100.0 mg/kg/injection, schedule: Q01DX009 (ip), vehicle: Klucel (hydroxypropylcellulose) (HPC)
[5] = dose: 12.5 mg/kg/injection, schedule: Q01DX001 (ip), vehicle: saline
[6] = dose: 12.5 mg/kg/injection, schedule: Q01DX009 (ip), vehicle: saline
[7] = dose: 25.0 mg/kg/injection, schedule: Q01DX001 (ip), vehicle: saline
[8] = dose: 25.0 mg/kg/injection, schedule: Q01DX009 (ip), vehicle: saline
[9] = dose: 50.0 mg/kg/injection, schedule: Q01DX001 (ip), vehicle: saline
[10] = dose: 50.0 mg/kg/injection, schedule: Q01DX009 (ip), vehicle: saline
[11] = dose: 200.0 mg/kg/injection, schedule: Q01DX001 (ip), vehicle: saline
[12] = dose: 100.0 mg/kg/injection, schedule: Q01DX001 (ip), vehicle: saline
[13] = dose: 200.0 mg/kg/injection, schedule: Q01DX009 (ip), vehicle: Klucel (hydroxypropylcellulose) (HPC)
[14] = dose: 75.0 mg/kg/injection, schedule: Q01DX001 (ip), vehicle: saline
[15] = dose: 150.0 mg/kg/injection, schedule: Q01DX001 (ip), vehicle: saline
[16] = dose: 50.0 mg/kg/injection, schedule: Q01DX001 (ip), vehicle: carboxymethylcellulose (CMC)
[17] = dose: 100.0 mg/kg/injection, schedule: Q04DX003 (ip), vehicle: Klucel (hydroxypropylcellulose) (HPC)
[18] = dose: 200.0 mg/kg/injection, schedule: Q04DX003 (ip), vehicle: Klucel (hydroxypropylcellulose) (HPC)
[19] = dose: 400.0 mg/kg/injection, schedule: Q01DX009 (ip), vehicle: Klucel (hydroxypropylcellulose) (HPC)
[20] = dose: 400.0 mg/kg/injection, schedule: Q04DX003 (ip), vehicle: Klucel (hydroxypropylcellulose) (HPC)

Measured: T/C

COc1ccc(OC)c(/C=N\NC(=O)N/N=C/c2cc(OC)ccc2OC)c1
inactive: dose: 100.0 mg/kg/injection, schedule: Q04DX002 (ip), vehicle: saline with Tween-80 101 % of control | dose: 200.0 mg/kg/injection, schedule: Q04DX002 (ip), vehicle: saline with Tween-80 101 % of control | dose: 400.0 mg/kg/injection, schedule: Q04DX002 (ip), vehicle: saline with Tween-80 95 % of control

Cc1ccc(S(=O)(=O)N2CCC=Cc3ccccc32)cc1
inactive: [1] 110 % of control | [2] 102 % of control | [3] 107 % of control

O=C(N/N=C/c1cccc2ccccc12)c1cccnc1
inactive: [4] 101 % of control

COC(=O)C1=C(NC(=O)Nc2ccc(Cl)cc2)OC(C)(C)C1c1ccc(Cl)cc1 (configuration not stated)
inactive: [5] 92 % of control | [6] 86 % of control | dose: 12.5 mg/kg/injection, schedule: Q04DX003 (ip), vehicle: acetone 93 % of control | [7] 87 % of control | [8] 90 % of control | dose: 25.0 mg/kg/injection, schedule: Q04DX003 (ip), vehicle: acetone 100 % of control | [9] 86 % of control | dose: 50.0 mg/kg/injection, schedule: Q04DX003 (ip), vehicle: acetone 96 % of control

CC1CN1P1(N2CC2C)=NP(N2CC2C)(N2CC2C)=NP(N2CC2C)(N2CC2C)=N1 (configuration not stated)
inactive: [5] 106 % of control | dose: 12.5 mg/kg/injection, schedule: Q04DX003 (ip), vehicle: saline 116 % of control | [7] 105 % of control | [8] 118 % of control | dose: 25.0 mg/kg/injection, schedule: Q04DX003 (ip), vehicle: saline 116 % of control | [9] 120 % of control | [10] 111 % of control | dose: 50.0 mg/kg/injection, schedule: Q04DX003 (ip), vehicle: saline 112 % of control | dose: 75.0 mg/kg/injection, schedule: Q04DX003 (ip), vehicle: acetone 120 % of control | dose: 100.0 mg/kg/injection, schedule: Q01DX009 (ip), vehicle: saline 106 % of control | dose: 170.0 mg/kg/injection, schedule: Q04DX003 (ip), vehicle: acetone 105 % of control | [11] 104 % of control

O=C(CCl)N1CCC(CC2(c3cc4ccccc4[nH]3)OCCO2)CC1
inactive: dose: 100.0 mg/kg/injection, schedule: Q04DX002 (ip), vehicle: other 97 % of control | dose: 200.0 mg/kg/injection, schedule: Q04DX002 (ip), vehicle: other 90 % of control | dose: 400.0 mg/kg/injection, schedule: Q04DX002 (ip), vehicle: other 94 % of control

C[C@]12CC[C@H]3C(=CCc4cc(O)ccc43)[C@@H]1CCC2=O
inactive: dose: 100.0 mg/kg/injection, schedule: Q01DX001 (sc), vehicle: steriod suspending solution 94 % of control | dose: 200.0 mg/kg/injection, schedule: Q01DX001 (sc), vehicle: steriod suspending solution 100 % of control | dose: 400.0 mg/kg/injection, schedule: Q01DX001 (sc), vehicle: steriod suspending solution 91 % of control

Nc1nc(N)c(-c2cccc(Cl)c2)c(CBr)n1
inactive: [6] 101 % of control | [8] 102 % of control | [10] 104 % of control

CCCCCC1OC1CC1OC1CCCCCCCC(=O)OC (configuration not stated)
inactive: [12] 109 % of control | [11] 95 % of control | dose: 400.0 mg/kg/injection, schedule: Q01DX001 (ip), vehicle: saline 102 % of control

OC12CCCCC13CCC1CCCCC1(O2)O3 (configuration not stated)
inactive: dose: 100.0 mg/kg/injection, schedule: Q01DX009 (ip), vehicle: saline with Tween-80 98 % of control | dose: 200.0 mg/kg/injection, schedule: Q01DX009 (ip), vehicle: saline with Tween-80 94 % of control | dose: 400.0 mg/kg/injection, schedule: Q01DX009 (ip), vehicle: saline with Tween-80 102 % of control

CS(=O)(=O)Oc1c(Cl)cc(S(=O)(=O)F)cc1Cl
inactive: [4] 104 % of control | [13] 102 % of control

CCOP(=S)(NN=C1CCC(C(C)(C)C)CC1)OCC (configuration not stated)
inactive: [12] 103 % of control | [11] 97 % of control

NC(N)=N/N=C/c1cc(Br)ccc1O
inactive: [14] 102 % of control | [15] 98 % of control

CN(Cc1cnc(N)nc1N)c1ccc(C(=O)O)cc1
inactive: [1] 90 % of control | [3] 92 % of control

O=S1(=O)C=CC(Br)C1 (configuration not stated)
inactive: dose: 100.0 mg/kg/injection, schedule: Q01DX001 (ip), vehicle: saline with Tween-80 100 % of control | dose: 200.0 mg/kg/injection, schedule: Q01DX001 (ip), vehicle: saline with Tween-80 101 % of control

CCNC(C)(C)C(SSSC(c1ccc(Cl)cc1)C(C)(C)NCC)c1ccc(Cl)cc1 (configuration not stated)
inactive: dose: 50.0 mg/kg/injection, schedule: Q01DX009 (ip), vehicle: Klucel (hydroxypropylcellulose) (HPC) 94 % of control | [4] 91 % of control | dose: 100.0 mg/kg/injection, schedule: Q01DX009 (ip), vehicle: other 89 % of control

CCN(CC)C(=O)N1CCN(c2ccc(OC)cc2)CC1
inactive: [14] 94 % of control | dose: 75.0 mg/kg/injection, schedule: Q04DX003 (ip), vehicle: saline 100 % of control | [15] 100 % of control | dose: 150.0 mg/kg/injection, schedule: Q04DX003 (ip), vehicle: saline 100 % of control | dose: 300.0 mg/kg/injection, schedule: Q01DX001 (ip), vehicle: saline 91 % of control | dose: 300.0 mg/kg/injection, schedule: Q04DX003 (ip), vehicle: saline 110 % of control

CC(=O)Nc1ccc2oc(=O)ccc2c1
inactive: dose: 100.0 mg/kg/injection, schedule: Q04DX003 (ip), vehicle: saline with Tween-80 98 % of control | dose: 200.0 mg/kg/injection, schedule: Q04DX003 (ip), vehicle: saline with Tween-80 105 % of control | dose: 400.0 mg/kg/injection, schedule: Q04DX003 (ip), vehicle: saline with Tween-80 98 % of control

CC1(CCOCc2ccccc2)NC(=O)N(CCC#N)C1=O (configuration not stated)
inactive: [16] 102 % of control | [1] 94 % of control | [2] 94 % of control | [3] 91 % of control

NC(=S)N/N=C1\C=CCCC1
inactive: [16] 111 % of control

O=P(CCl)(NC12CC3CC(CC(C3)C1)C2)N1CC1 (configuration not stated)
inactive: dose: 50.0 mg/kg/injection, schedule: Q04DX003 (ip), vehicle: Klucel (hydroxypropylcellulose) (HPC) 100 % of control | [4] 97 % of control | [17] 95 % of control | [13] 95 % of control | [18] 103 % of control | [19] 103 % of control | [20] 97 % of control

Nc1nc(N)c(CCCOc2cccc(Cl)c2Cl)c(N)n1
inactive: dose: 87.5 mg/kg/injection, schedule: Q01DX009 (ip), vehicle: Klucel (hydroxypropylcellulose) (HPC) 95 % of control | dose: 175.0 mg/kg/injection, schedule: Q01DX009 (ip), vehicle: Klucel (hydroxypropylcellulose) (HPC) 88 % of control | dose: 350.0 mg/kg/injection, schedule: Q01DX009 (ip), vehicle: Klucel (hydroxypropylcellulose) (HPC) 106 % of control

CCOC(=O)c1ccc(NC(=O)Oc2ccccc2C(=O)OC)cc1
inactive: [4] 96 % of control | [13] 97 % of control | [19] 93 % of control

O=C(Cc1ccccc1)OCCc1ccccc1
inactive: [4] 98 % of control and 105 % of control | [17] 94 % of control and 98 % of control | [13] 97 % of control and 89 % of control | [18] 94 % of control and 100 % of control | [19] 101 % of control and 104 % of control | [20] 96 % of control and 100 % of control

c1ccc2c(c1)ccc1c[n+]3c4ccccc4ccc3n12
inactive: dose: 0.62 mg/kg/injection, schedule: Q01DX009 (ip), vehicle: saline 105 % of control | dose: 1.25 mg/kg/injection, schedule: Q01DX009 (ip), vehicle: saline 113 % of control | dose: 2.5 mg/kg/injection, schedule: Q01DX009 (ip), vehicle: saline 123 % of control | dose: 5.0 mg/kg/injection, schedule: Q04DX003 (ip), vehicle: saline 106 % of control | dose: 10.0 mg/kg/injection, schedule: Q01DX001 (ip), vehicle: saline 109 % of control | dose: 20.0 mg/kg/injection, schedule: Q01DX001 (ip), vehicle: saline 105 % of control

C=CS(=O)(=O)CCCCCCCCCCCCCCCCCC
inactive: [17] 91 % of control | [18] 91 % of control | [20] 98 % of control
